Assay results: ChEMBL document CHEMBL1156829 (Proc Natl Acad Sci U S A, 2008)

Assays:
[1] = tested on: Plasmodium falciparum; assay: NOVARTIS: Inhibition of Plasmodium falciparum 3D7 (drug-susceptible) proliferation in erythrocyte-based infection assay; assay type: functional, organism-based; settings: Plasmodium falciparum, 3D7
[2] = NOVARTIS: Cytotoxicity against human hepatocellular carcinoma cell line (Huh7); assay type: toxicity, cell-based, Huh-7; settings: Huh7 cells (hepatocellular carcinoma cell line)
[3] = tested on: Plasmodium falciparum; assay: NOVARTIS: Inhibition of Plasmodium falciparum W2 (drug-resistant) proliferation in erythrocyte-based infection assay; assay type: functional, organism-based; settings: Plasmodium falciparum, W2; read-out: EC50

Compound | EC50 [1] [nM] | CC50 [2] [µM] | EC50 [3] [nM]
COc1cc(C=C(C#N)c2nc3ccccc3[nH]2)ccc1OCc1ccccc1 | 766 | > 100 | 1590
O=[N+]([O-])c1ccc(C=NN2CCN(Cc3ccccc3Cl)CC2)cc1 | > 7220 | > 100 | > 1590
C=C[C@H]1CN2CC[C@H]1C[C@@H]2[C@@H](OC(C)=O)c1ccnc2ccccc12 | 666 | > 10 | 157
c1ccc(OCCOc2ccc(Nc3ccnc4cc5ccccc5cc34)cc2)cc1 | 124 | 6.11 | 97.5
O=C(c1cc2n(n1)C(C(F)(F)F)CC(c1ccc3c(c1)OCO3)N2)N1CCN(C(c2ccccc2)c2ccccc2)CC1 (stereo not given) | 5260 | > 100 | 1600
COc1cccc(CCOc2ccc3c(c2)C(=O)N(C(CC(C)C)C(=O)NC2CCN(Cc4ccccc4)CC2)[C@@H](Cc2ccc(O)cc2)C(=O)N3)c1 (stereo not given in full) | 502 | > 10 | 158
CCCCCCCC(=O)N1CCN(CCN(Cc2ccc(F)cc2)C(=O)c2c(-c3c(F)cccc3Cl)noc2C)CC1 | 1760 | > 100 | 1660
CCN(CC)c1nc(Nc2cc(C)ccc2C)nc(Nc2ccccc2O)n1 | 439 | > 10 | 159
CC(C)NCC(O)Cn1c2ccc(Br)cc2c2cc(Br)ccc21 (stereo not given) | 216 | 3.36 | 54.4
Oc1c(C(Nc2ccccn2)c2ccc(Cl)cc2Cl)ccc2cccnc12 (stereo not given) | > 1300 | > 10 | 160
CC(c1nc2ccccc2c(=O)n1-c1ccccc1Cl)N(Cc1ccccc1)C(=O)Nc1cccc(Br)c1 (stereo not given) | > 1250 | > 10 | > 159
COc1cc2c(c(OC)c1CN1CCN(c3ccccc3)CC1)C(=O)c1ccccc1C2=O | 130 | > 10 | 166
C=C[C@H]1CN2CC[C@H]1C[C@H]2[C@H](OC(=O)CC)c1ccnc2ccccc12 | 364 | > 10 | 166
Cc1ccc2nc(C(C#N)=Cc3cn(Cc4ccc(Cl)cc4Cl)nc3-c3ccccc3)[nH]c2c1 | 1820 | > 100 | 1590
CCCCCC(=O)NCCCCCCNc1ccnc2cc(Cl)ccc12 | 254 | > 13.9 | 222
CC(C)N(C(=O)Cn1ccc(=N)c2ccccc21)C(C)C | 1240 | > 100 | 1650
CC(=O)N(C1=C(N2CCOCC2)C(=O)c2ccccc2C1=O)c1ccc(F)c(F)c1 | 74.3 | 3.48 | 57.5
O=C1CN(C(=O)COC(=O)c2ccccc2NCCc2ccc(F)cc2)c2ccccc2N1 | 219 | > 10 | 165
OCCNc1nc(Nc2ccc(Cl)c(Cl)c2)nc2ccccc12 | 140 | 9.4 | 154
CCCCCc1ccc(OCCCC[n+]2cccc(C)c2)c(CCCCC)c1 | 713 | 20.5 | 336
O=[N+]([O-])c1ccc(N2CCN(C(=S)Nc3ccccc3)CC2)cc1 | 6010 | > 100 | 1640
COc1ccc(CCNc2ncnc3c2[nH]c2ccccc23)cc1 | 299 | 24.9 | 401
CCC(C)(C)c1ccc(OCCCC[n+]2ccc(C)cc2)c(C(C)(C)CC)c1 | 532 | 12 | 193
CCOC(=O)c1cnc2c(ccc3ccccc32)c1Nc1ccc(NC(C)=O)cc1 | 6900 | > 100 | 1610

Compound | EC50 [1] [nM] | CC50 [2] [µM] | EC50 [3] [nM]
COc1ccc(-n2cnc3cc(NCc4nc5ccccc5n4C)ccc32)cc1 | 912 | 56.8 | 906
CCc1ccc2ncc(C(=O)OCCOC)c(O)c2c1 | 777 | > 100 | 1620
COc1nc(Nc2ccc(C(C)C)cc2)nc(OC)n1 | 677 | 56.9 | 935
COc1nc(C)nc(NC(=O)NC(=O)c2c(OC)ccc([N+](=O)[O-])c2OC)n1 | > 266 | > 10 | > 164
Nc1ccc(-c2nc3cc(Oc4ccc(Oc5ccc6[nH]c(-c7ccc(N)cc7)nc6c5)cc4)ccc3[nH]2)cc1 | 288 | 15 | 246
Cc1ccc(-c2c[n+](-c3ccccc3)c3n2CCCS3)cc1 | 735 | > 100 | 1640
CCC(C)C(=O)N1CCC(C(=O)Nc2ccc(-c3nc4ccccc4o3)cc2)CC1 (stereo not given) | 1860 | > 100 | 1580
COc1ccc(-c2noc(CNC(=O)c3cccc(I)c3)n2)cc1 | > 12500 | > 100 | 1580
COC(=O)c1ccc(S(=O)(=O)N2CCC3(CC2)Nc2ccccc2-n2cccc23)cc1 | > 1250 | > 10 | > 163
Cc1nc(NCCCN(C)C)c2sc3nc4c(cc3c2n1)COC(C)(C)C4 | > 12500 | > 100 | 1630
Cc1sc2sc(-c3ccccc3)c(N)[n+]2c1C | 1050 | > 100 | 1630
CCN(CC)CCNc1ncnc2c1[nH]c1ccc(Br)cc12 | 288 | 19.5 | 318
NCCNc1cc(-c2ccccc2)nc2ccccc12 | 318 | 23 | 375
O=c1c2ccccc2nc2n1CCN2Cc1ccc(Cl)cc1 | 1610 | > 100 | 1630
COc1cccc(OC)c1C(=O)NCCCCNc1ccnc2cc(Cl)ccc12 | 449 | > 12.2 | 198
Cc1cc2c(cc1C)-c1c(ssc1=Nc1cccc(C)c1C)C(C)(C)N2 | 8590 | > 100 | 1620
c1ccc2c(c1)[nH]c1c(NCCN3CCCCC3)ncnc12 | 704 | 49.9 | 788
O=S(=O)(Nc1cc(Sc2nc[nH]n2)c(O)c2ccccc12)c1ccc(F)cc1 | 1600 | 20.5 | 323
CN1CCC(CCNCc2ccc(OCC(O)CN(C)Cc3ccccc3)cc2)CC1 (stereo not given) | 1110 | 68.6 | 1080
Cc1ccccc1OCCSc1nc2ccc(NC(=O)c3cccs3)cc2s1 | 497 | > 100 | 1580
CC(C)c1ccc(NC(=O)C(Cc2cccs2)c2nnn[nH]2)cc1 (stereo not given) | 11300 | > 100 | 1570
COc1cc(C=C(C#N)c2nc3ccccc3[nH]2)ccc1OCc1ccc(Cl)cc1 | 763 | > 100 | 1570
Cc1nc2ccccc2c(=O)n1NC(=O)c1cccc([N+](=O)[O-])c1 | 141 | > 100 | 1610
Cc1ccc2c(C)nc(NC(=N)N)nc2c1 | 406 | 48.2 | 756

Compound | EC50 [1] [nM] | CC50 [2] [µM] | EC50 [3] [nM]
CC(C)N(CCNc1ncnc2c1[nH]c1ccc(Cl)cc12)C(C)C | 262 | 15.2 | 252
O=C(CN1CCCC1)Nc1nc(-c2ccc3c(c2)CCN3S(=O)(=O)c2ccccc2)cs1 | 468 | > 76.2 | 1270
CC(C)Cc1nc(N2CCOCC2)c2nnn(Cc3ccccc3)c2n1 | 3030 | > 100 | 1650
COc1ccc(C2CC(c3cccs3)=NN2C(=O)CSc2nnc(CNC(=O)c3cccs3)n2-c2cccc(C)c2)cc1 (stereo not given) | 10400 | > 100 | 1610
Cc1cc(C)c(C(Nc2ccccn2)c2ccc3cccnc3c2O)c(C)c1 (stereo not given) | 3180 | > 67.9 | 1070
CCn1ccccc1=Nc1cccc[n+]1CC | 1500 | > 73.2 | 1170
CC(OC(=O)c1ccccc1N1C(=O)C2C3C=CC(C4CC34)C2C1=O)C(=O)c1ccccc1 (stereo not given) | 961 | > 100 | 1570
O=c1oc(-c2ccccc2F)nc2sc3c(c12)CCCC3 | > 12500 | > 100 | 1570
CC(C)(C)c1ccc(-c2nc(C34CC5CC(CC(C5)C3)C4)cs2)cc1 | > 12500 | > 100 | 1650
COc1ccc(-c2cnc3ccc(NCc4cccc(Cl)c4)nn23)cn1 | 805 | 68.9 | 1130
CCCC(=O)NC(c1ccc(Cl)cc1)c1ccc2cccnc2c1O (stereo not given) | 288 | 10.3 | 170
COc1ccc(S(=O)(=O)ON=C2C=C(C(C)C)C(=O)C=C2C)cc1 | 834 | 18.3 | 296
Cc1ccc(CNC(=O)c2cc3sc(Cl)cc3n2C)cc1 | 3130 | > 100 | 1590
Cc1ccc(CNC(=O)CCCCCn2c(SCc3cccc([N+](=O)[O-])c3)nc3ccsc3c2=O)cc1 | 6280 | > 100 | 1600
Cc1ccc2[nH]c3c(NCCN4CCCC4)ncnc3c2c1 | 514 | 46.5 | 737
Cc1ccc(-c2cn3ccccc3[n+]2-c2ccccc2)cc1 | 214 | 51.7 | 817
COc1cc(C2C(C(=O)OCCc3ccccc3)=C(C)NC3=C2C(=O)CC(c2ccc(Cl)cc2)C3)ccc1OCc1ccccc1 (stereo not given) | 6940 | > 100 | 1580
CC(C)CC(=O)N(C)CCCNc1ccnc2cc(Cl)ccc12 | 740 | 7.44 | 121
Cn1c(=O)c2c(nc3n2CC(O)CN3c2ccccc2)n(C)c1=O (stereo not given) | 72.6 | > 10 | 162
Clc1ccc(OCc2nc3ccccc3n2CCc2ccccc2)cc1 | > 720 | > 10 | 165
CSc1nc2sc3c(c2c(=O)n1-c1ccccc1)CCN(CCc1ccccc1)C3 | 859 | > 69.3 | 1140
CC1=[N+](CC(=O)c2ccc(C)cc2)CCn2c(C)ccc21 | 1050 | > 100 | 1660
